Numbered stars: 1 amine (or outer) side, 2 acyl side, 3 side chain; on linkers, the order of the positions; unused ones are H or OH. Square brackets hold non-standard residues; d marks the D form. Peptide text beside a SMILES is read from it. * marks the point of attachment. β3hPhe(2R-OH) = O=C([C@H](O)[C@H](Cc1ccccc1)N[*:1])[*:2]; Tetrazole5carbonyl = O=C(c1nn[nH]n1)*; Oxalyl = O=C(C(=O)[*:2])[*:1]; Dap = NC[C@H](N)C(=O)O
What was measured:
[1] = molecular target: T1, Beta-secretase 1 (Homo sapiens, UniProt P56817); experiment: Inhibitory activity against beta-secretase 1 (BACE1) at 2 uM
[2] = molecular target: T1, Beta-secretase 1; experiment: Inhibitory activity against beta-secretase 1 (BACE1) at 0.2 uM
[3] = molecular target: T1, Beta-secretase 1; experiment: Inhibitory activity against beta-secretase 1 (BACE1)

T1 sequence (P56817 whole entry): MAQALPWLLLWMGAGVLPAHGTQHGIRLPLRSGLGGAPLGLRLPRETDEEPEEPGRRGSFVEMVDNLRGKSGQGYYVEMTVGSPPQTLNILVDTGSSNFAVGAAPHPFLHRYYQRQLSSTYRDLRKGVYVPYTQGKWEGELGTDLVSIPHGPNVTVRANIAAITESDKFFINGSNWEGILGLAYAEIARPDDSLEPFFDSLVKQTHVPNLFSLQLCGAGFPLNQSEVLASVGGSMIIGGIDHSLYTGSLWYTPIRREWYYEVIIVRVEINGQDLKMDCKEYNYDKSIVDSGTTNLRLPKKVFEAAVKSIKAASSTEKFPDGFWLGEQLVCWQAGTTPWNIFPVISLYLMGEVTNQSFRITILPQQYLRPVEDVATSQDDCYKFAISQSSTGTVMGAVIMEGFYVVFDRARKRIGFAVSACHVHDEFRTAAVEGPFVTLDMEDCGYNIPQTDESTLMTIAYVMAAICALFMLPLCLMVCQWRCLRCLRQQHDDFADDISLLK

Row | SMILES | inhibition [1] [%] | inhibition [2] [%] | IC50 [3] [nM]
1 | CC(C)C[C@H](NC(=O)[C@@H](NC(=O)[C@H](CN)NC(=O)c1nn[nH]n1)C(C)C)C(=O)N[C@@H](Cc1ccccc1)[C@@H](O)C(=O)N[C@@H](CC(=O)O)C(=O)N[C@@H](C)C(=O)N[C@@H](CCC(=O)O)C(=O)O (Tetrazole5carbonyl-[Dap]VL[β3hPhe(2R-OH)]DAE-OH) | 23.2 |  | 
2 | CC(C)C[C@H](NC(=O)[C@@H](NC(=O)[C@H](CN)NC(=O)c1nn[nH]n1)C(C)C)C(=O)N[C@@H](Cc1ccccc1)[C@@H](O)C(=O)Nc1cccc(C(=O)O)c1 | 0 |  | 
3 | CC(C)C[C@H](NC(=O)[C@@H](NC(=O)[C@@H](N)CNC(=O)c1nn[nH]n1)C(C)C)C(=O)N[C@@H](Cc1ccccc1)[C@@H](O)C(=O)N[C@@H](CC(=O)O)C(=O)N[C@@H](C)C(=O)N[C@@H](CCC(=O)O)C(=O)O (H-[Dap](Tetrazole5carbonyl)VL[β3hPhe(2R-OH)]DAE-OH) | 93 | 73.1 | 
4 | CC(C)C[C@H](NC(=O)[C@@H](NC(=O)[C@H](CN)NC(=O)C(=O)O)C(C)C)C(=O)N[C@@H](Cc1ccccc1)[C@@H](O)C(=O)Nc1cccc(C(=O)O)c1 | 87.9 | 58.6 | 
5 | CC(C)C[C@H](NC(=O)[C@@H](NC(=O)[C@@H](N)CNC(=O)C(=O)O)C(C)C)C(=O)N[C@@H](Cc1ccccc1)[C@@H](O)C(=O)Nc1cccc(C(=O)O)c1 | 98.4 | 85.5 | 16
6 | CC(C)C[C@H](NC(=O)[C@@H](NC(=O)[C@@H](N)CNC(=O)c1nnn[nH]1)C(C)C)C(=O)N[C@@H](Cc1ccccc1)[C@@H](O)C(=O)Nc1cccc(C(=O)O)c1 |  |  | 8.2
7 | CC(C)C[C@H](NC(=O)[C@@H](NC(=O)[C@@H](N)CNC(=O)c1nn[nH]n1)C(C)C)C(=O)N[C@@H](Cc1ccccc1)[C@@H](O)C(=O)Nc1cc(C(=O)O)cc(C(=O)O)c1 | 100 | 98.1 | 
8 | CC(C)C[C@H](NC(=O)[C@@H](NC(=O)[C@@H](N)CNC(=O)C(=O)O)C(C)C)C(=O)N[C@@H](Cc1ccccc1)[C@@H](O)C(=O)Nc1cc(C(=O)O)cc(C(=O)O)c1 | 99.8 | 96.7 | 4.7
9 | CC(C)C[C@H](NC(=O)[C@@H](NC(=O)[C@@H](N)CNC(=O)c1nn[nH]n1)C(C)C)C(=O)N[C@@H](Cc1ccccc1)[C@@H](O)C(=O)Nc1cccc(C(=O)O)c1 | 99 | 87.1 | 
10 | CC(C)C[C@H](NC(=O)[C@@H](NC(=O)[C@@H](N)CNC(=O)C(=O)O)C(C)C)C(=O)N[C@@H](Cc1ccccc1)[C@@H](O)C(=O)N[C@@H](CC(=O)O)C(=O)N[C@@H](C)C(=O)N[C@@H](CCC(=O)O)C(=O)O (H-[Dap](Oxalyl)VL[β3hPhe(2R-OH)]DAE-OH) | 96.7 | 57.6 | 84
11 | CC(C)C[C@H](NC(=O)[C@@H](NC(=O)[C@H](CN)NC(=O)C(=O)O)C(C)C)C(=O)N[C@@H](Cc1ccccc1)[C@@H](O)C(=O)N[C@@H](CC(=O)O)C(=O)N[C@@H](C)C(=O)N[C@@H](CCC(=O)O)C(=O)O (Oxalyl-[Dap]VL[β3hPhe(2R-OH)]DAE-OH) | 75.2 |  | 
12 | CC(C)C[C@H](NC(=O)[C@@H](NC(=O)[C@@H](N)CNC(=O)c1nnn[nH]1)C(C)C)C(=O)N[C@@H](Cc1ccccc1)[C@@H](O)C(=O)Nc1cc(C(=O)O)cc(C(=O)O)c1 |  |  | 3.9
